In patent US20250177366A1, “COMPOSITIONS AND METHODS FOR ALLEVIATING PAIN AND REDUCING ADVERSIVENESS OF STIMULI” (UNIVERSITY OF WASHINGTON, priority 2021, published 2025):

Key:
Type in all cases: in vivo, Zebrafish (Danio rerio)
larval zebrafish [1] = assay: Thermal preference assay (28.5° C. vs 37.5° C.), non-sensitized; conditions: for effect of co-applied drug on AS1-induced attraction to noxious heat / temperature choice, drug alone / effect of structural analog on temperature preference (time spent in the 28.5° C. zone): 28.5° C. vs 37.5° C.; for effect of co-applied drug on AS1-induced attraction to noxious heat: drug + 5 μM AS1; for temperature choice, drug alone: without AS1; for effect of structural analog on temperature preference (time spent in the 28.5° C. zone): at the tested concentration; for Reverses 28.5° C. Choice?: temperature preference 28.5° C. vs 37.5° C., larval zebrafish
Protocol: Thermal preference assay. […] Once an entire plate was loaded with fish, the appropriate incubation solution was added. […] Following incubation in all experiments, the choice testing plate was transported to a dual solid-state heat/cool plate (AHP-1200° C. P; Teca) and centered such that half of each arena was positioned over each side of the heat/cool plate. […] Locomotor behavior was recorded using a Canon high-definition video camcorder suspended at a fixed position above the choice testing plate. Each trial was four minutes in duration.
For single-incubation assays (e.g. testing single chemicals), larval zebrafish were caught in 100 μL E2 media and 100 μL of the control (2% DMSO) or test chemical at 2× concentration was added to each well to achieve the final desired concentration. […] The final DMSO concentration in all solutions was 1%.

larval zebrafish [2] = assay: Light/dark preference (phototaxis) assay
Protocol: Following this, whether the effects of AS1 were restricted to somatosensation or were generalizable to other aversive stimuli were tested. Thus, the effects of AS1 on light/dark preference were tested. Zebrafish larvae prefer white light environments to dark environments and this preference is inhibited by anxiolytics, analagous to studies in rodents (Lau et al., Proc. Natl. Acad. Sci. U.S.A 2011; 108:2581-2586; Burgess et al., Curr. Biol. 2010; 20:381-386). To measure light/dark preference, larval zebrafish were placed in a square arena and given the choice between a bright white light and total darkness, and the number of larvae on each side was quantified at 30 second intervals. Five 4-minute trials were performed, where the light and dark sides of the arena were reversed between trials. […] Given the precise control over stimulus luminosity in this assay, the effects of altering the intensity of the dark stimulus were explored next. In this gradient version of the phototaxis assay, larval zebrafish were given the choice between a bright white environment and one of six potential shades of darkness, ranging from light gray to solid black. […] This implies that the valence of non-painful noxious stimuli is precisely encoded in an intensity-dependent manner, and that AS1 exerts its effects in proportion to the intensity of the stimulus.
Light/dark preference (phototaxis) assay. In the light/dark preference assay, randomly-selected 6 dpf larval zebrafish (N of 30 to 40) were carefully pipetted onto a 10 cm square petri dish using a 10 mL pipette pump equipped with a glass wide-bored Pasteur pipet. As much E2 media as possible was carefully removed using the same pipet. For single incubation experiments, 30 mL of 1× solutions of the control or test chemical was added to each petri dish, and fish were incubated for 10 minutes at 28.5° C. For double incubation experiments, 15 mL of 1× solutions containing control (DMSO) or test chemicals was added to the larvae-containing petri dish. Following a ten-minute incubation period, 15 mL of the second incubation solution (1× control or test chemical +/−2× AS1) was added to the petri dish, and the fish were incubated for a second ten minute block. The final concentration of DMSO in all solutions was 1%. In all double-incubation experiments, the final concentration of AS1 was 2.5 μM. These petri dishes were then positioned over a horizontally-oriented computer monitor displaying a PowerPoint presentation. For standard light/dark preference assays, a blank white slide was initially presented for one minute, after which the presentation would automatically advance to a slide in which half of the display was black. The petri dish with larvae was positioned such that exactly half was directly over the dark side, and the other half was directly over the light side. After four minutes, the presentation automatically advanced to a slide in which the black and white halves switched places. A total of five four-minute trials, with the dark/light halves automatically switching position between trials, were recorded. For the gradient phototaxis assay, experiments were performed identically, except that the “dark” half of the powerpoint presentation was one of six shades of gray.
In all experiments, an initial still frame of video was taken during the minute where the blank slide was presented in order to quantify the total number of fish in the experiment. Following this, still frames were taken at 30 second intervals for each trial ([…]), and the number of fish present in the light half of the arena were counted. To generate the graphs that looked at swimming patterns over time in a trial (e.g., FIG. 3D), the average percentage of fish in the light at each time point (T=0, T=30, etc.) was calculated across all five trials. […]

larval zebrafish [3] = assay: AITC aversion assay (chemical attraction/aversion, AITC-infused agarose)
Description: Whether the effects of AS1 extended beyond noxious temperature sensation or could also impact other somatosensory modalities was next explored. To accomplish this, a chemical attraction/aversion assay where a thin layer of agarose was deposited along the edges of a square arena (Jordi et al., Sci. Adv. 2018; 4:1-15) were adapted. Along one wall, the agarose contained the chemical to be tested, while the other three walls were lined with control agarose. It was anticipated that a chemical gradient would be established as chemical diffused from the agarose into the surrounding water. Larvae were pre-incubated in either vehicle or AS1 and then added to the arena and the distance of each larva from the chemical-infused agarose was measured. In control experiments where all four walls of the arena were lined with agarose only, AS1 and vehicle-treated larvae were dispersed evenly throughout the arena (FIG. 3). […] When the nociceptive chemical AITC (100 mM, 10,000× maximal effective dose) was tested, vehicle-treated larvae swam away from the AITC source.
Chemical attraction/aversion assays. The agarose attraction/aversion assay was adapted from previously described experiments (Jordi et al., Sci. Adv. 2018; 4:1-15). For the AITC aversion assay, AITC and DMSO were added to molten 0.8% agarose to achieve a final concentration of 100 mM AITC and 2% DMSO. For the AS1 attraction/aversion assay, AS1 and DMSO were added to 0.8% molten agar to achieve final concentrations of 50 mM and 2%, respectively. To construct the test chambers, the lids of 10×10 cm square petri dishes (insert cat #and company) were lined on four sides with either the test (chemical-containing) or plain agarose (300 μL per side) and allowed to solidify. For all experiments, 30-40 randomly selected 6 dpf zebrafish were caught with a 10 mL pipette pump (Bel-Air Products, cat #: 13683C) equipped with a glass wide-bored Pasteur pipet (Fisher Scientific, cat #: 22-037-540) and deposited into a standard 10 cm diameter petri dish (Fisher Scientific, cat #: 07-202-031). As much E2 media as possible was carefully removed using the same pipette. For single incubation experiments, 30 mL of 1× solutions of the control or test chemical was added to each petri dish, and fish were incubated for 10 minutes at 28.5° C. For double incubation experiments, 15 mL of 1× solutions containing control (DMSO) or test chemicals was added to the larvae-containing petri dish. Following a ten minute incubation, 15 mL of the second incubation solution (1× control or test chemical +/−2× AS1) was added to the petri dish, and the fish were incubated for a second ten minute block. The final concentration of DMSO in all solutions was 1%. In all double-incubation experiments, the final concentration of AS1 was 5 μM unless otherwise noted. After completion of the last incubation period, the contents of each petri dish were poured into separate agarose-lined square dishes. Swimming behavior was immediately recorded for 20 minutes using the same high-definition camcorder in the thermal preference assays.

Compound | effect of co-applied drug on AS1-induced attraction to noxious heat (larval zebrafish [1]) | temperature choice, drug alone (larval zebrafish [1]) | effect of structural analog on temperature preference (time spent in the 28.5° C. zone) (larval zebrafish [1]) | Reverses 28.5° C. Choice? (larval zebrafish [1]) | other results
CN1CCN(CCc2ccc(Cl)c(Cl)c2)CC1 [BD1063] | At no concentration did BD1063 influence AS1-induced attraction towards noxious heat | significantly chose the 28.5 °C side |  |  | 
CN1CCc2cc(Cl)c(O)cc2[C@@H](c2ccccc2)C1 [SCH23390] |  |  |  |  | concentration abolishing AS1-induced preference for the dark entirely (larval zebrafish [2]; SCH 10-20 μM + 2.5 μM AS1): 15 µM; concentrations that partially attenuate AS1-induced attraction to AITC (larval zebrafish [3]; SCH 1-20 μM + 5 μM AS1): ≥ 5 µM
Cn1c(=O)c2c(ncn2C)n(C)c1=O [caffeine] |  | did not affect thermal preference for 28.5 °C |  |  | 
CC(N)Cc1c[nH]c2ccc(OCc3cccs3)cc12 (centres unmarked) [BW723C86] | At no concentration did BW723C86 influence AS1-induced attraction towards noxious heat | significantly chose the 28.5 °C side |  |  | 
C=CCN1CC[C@]23c4c5ccc(O)c4O[C@H]2C(=O)CC[C@@]3(O)[C@H]1C5 [Naloxone, naloxone] | significantly chose the 37.5 °C side | significantly chose the 28.5 °C side of the arena |  |  | effect of co-applied drug on AS1-induced preference for the dark (larval zebrafish [2]; drug + 2.5 μM AS1): significantly preferred the dark, regardless of whether 1 μM naloxone was applied; light/dark preference, drug alone (larval zebrafish [2]; without AS1): significantly chose the light side of the arena; effect of co-applied drug on AS1-induced attraction to AITC (larval zebrafish [3]; AITC 100 mM in agarose, drug + AS1 (5 μM; 2.5 μM with SKF and sumanirole)): did not reverse AS1-induced attraction towards AITC; AITC aversion, drug alone (larval zebrafish [3]; AITC 100 mM in agarose, without AS1): did not affect AITC avoidance
Cc1ccc(C(=O)Nc2ccncc2)c(C)c1 [Compound 7755382, 2,4-dimethyl-N-4-pyridinylbenzamide] |  |  | prevented an analogue from replicating the effects of AS1 | No | 
CC(C)c1ccc(NC(=O)c2cccnc2)cc1 [Compound 5538018, N-(4-isopropylphenyl)nicotinamide] |  |  |  | No | 
COc1ccc(Br)cc1CCc1c(F)cccc1C1=NCCN1 [ML00253764] | At no concentration did ML00253764 reduce AS1-induced attraction towards noxious heat | slightly potentiate preference towards the 28.5 °C zone |  |  | 
CCCc1ccc(C(=O)Nc2ccncc2)cc1 [Compound 9089110, 4-propyl-N-4-pyridinylbenzamide] |  |  | abolished preference for either side | No preference for either temperature | effect of structural analog on temperature preference (time spent in the 28.5° C. zone) (larval zebrafish [1]; listed as Analog 9089110): completely ablated aversion
Cc1noc(C)c1C(=O)Nc1ccc(C(C)C)cc1 [Compound 9089180, N-(4-isopropylphenyl)-3,5-dimethyl-4-isoxazolecarboxamide] |  |  | had a significant (if small) influence upon temperature choice behavior | No | 
CC(C)c1ccc(C(=O)Nc2cccnc2)cc1 [Compound 7301738, 4-isopropyl-N-3-pyridinylbenzamide] |  |  | only had a small, if still significant, effect on temperature preference | No | 
COc1ccc(CC2NCCc3c2[nH]c2ccc(C)cc32)c(Cl)c1OC (centres unmarked) [LY266097] | At no concentration did LY266097 influence AS1-induced attraction towards noxious heat | significantly chose the 28.5 °C side |  |  | 
Cc1cc(C)c(C(=O)Nc2ccncc2)c(C)c1 [Compound 9047736, 2,4,6-trimethyl-N-4-pyridinylbenzamide] |  |  | prevented an analogue from replicating the effects of AS1 | No | 
O=C(OCCN1CCOCC1)C1(c2ccccc2)CCCCC1 [PRE-084] | At no concentration did PRE-084 influence AS1-induced attraction towards noxious heat | potentiating preference for the 28.5 °C zone |  |  | 
CCCCc1ccc(C(=O)Nc2ccncc2)cc1 [Compound 9098532, 4-butyl-N-4-pyridinylbenzamide] |  |  | prevented an analogue from replicating the effects of AS1 | No | 
CCCc1ccc(C(=O)Nc2cccnc2)cc1 [Compound 9090934, 4-propyl-N-3-pyridinylbenzamide] |  |  | has no effect upon temperature preference | No | 
O=C1CC2(CCCC2)CC(=O)N1CCCCN1CCN(c2ncccn2)CC1 [Buspirone, buspirone] |  | had no effect upon thermal preference |  |  | 
CCc1ccc(C(=O)Nc2cccnc2)cc1 [Compound 7947669, 4-ethyl-N-3-pyridinylbenzamide] |  |  |  | No | 
CN1C(=O)CN=C(c2ccccc2)c2cc(Cl)ccc21 [diazepam] |  | potentiated preference for 28.5 °C |  |  | 
